Measurements: patent publication US20110306137A1, “METHODS AND COMPOSITIONS FOR MODULATING DIFFERENTIATION OF PLURIPOTENTIAL CELLS” (priority 2007, published 2011)

What was measured:
[1] = test system: MASCs; assay: Osteogenic differentiation of MASCs with Notch activation by clustered Jag1/Fc, with or without DAPT; assay type: cell-based, human; details: for effect on Jagged stimulation of osteogenesis: 5 μM DAPT
Experimental: MASCs (prepared essentially as described in Example 1) were plated at 10^4 cells/well in 96-well plates in […]MEM (Mediatech, Herndon, Va.) supplemented with 10% Fetal Bovine Serum (FBS, HyClone, Logan Utah) and cultured overnight. The next day, cells were transferred to osteogenic differentiation medium (composition described in Example 5).
During the differentiation procedure, certain batches of cells were subjected to Notch activation via the Notch ligand Jagged. A fusion between the extracellular domain of the rat Jagged1 protein and the Fc region of human IgG (Jag1/Fc) was obtained from R&D Systems (Minneapolis, Minn.; Catalogue No. 599-JG), and the lyophilized preparation was reconstituted to a concentration of 1 mg/ml in PBS containing 0.1% (w/v) bovine serum albumin.
The chimeric Jag1/Fc protein was “clustered” by preincubation with a ten-fold weight excess of goat anti-human Fc (Sigma, St. Louis Mo.). Before use, the antibody solution (2 mg/ml) was dialyzed overnight, with three changes, against PBS to remove sodium azide. The volume of antibody solution was not changed by dialysis. For clustering, Jag1/Fc (1 mg/ml in PBS+0.1% BSA) and anti-human Fc (2 mg/ml in PBS) were mixed and incubated at room temperature for 40 min prior to addition to the cell cultures.
(§1) Clustered Jag1/Fc was added to cultures at a final concentration of 5 μg/ml Jag1/Fc and 50 μg/ml antibody. Control cultures received only the antibody. Additional cultures received Jag1/Fc and anti-Fc as above, along with 5 μM N—[N-(3,5-Difluorophenacetyl)-L-alanyl]-S-phenylglycine t-butyl ester (DAPT), a […]-secretase inhibitor. Stock solutions of 2 mM DAPT in DMSO were obtained from Sigma-Aldrich, St. Louis, Mo. […]-secretase is a protease that, upon activation of transmembrane Notch protein by a Notch ligand, cleaves the Notch protein at a site that allows release of the Notch intracellular domain. Certain cultures also included BMP-6 (final concentration 500 ng/ml), as described in Example 5.
(§2) After 10 days in culture, cells were fixed in methanol, stained with Alizarin Red and examined by microscopy as described in Example 5.

[2] = test system: DRCs; assay: Osteogenic differentiation of DRCs with DAPT; assay type: cell-based, human; details: presence of BMP6
Experimental: as §1, §2

[3] = test system: MASCs; assay: Adipogenic differentiation of MASCs with clustered Jag1/Fc, DAPT, BMP6; assay type: cell-based, human
Experimental: MASCs were prepared essentially as described in Example 1. Culture in adipogenic differentiation medium was as described in Example 6. Treatment of cells with Anti-Fc and Clustered Jag1/Fc were as described in Example 7. Fixation, staining with Oil Red O and analysis of adipogenic differentiation were as described in Example 6.

[4] = test system: genes involved in Notch signaling; assay: RT2 Profiler PCR Array Human Notch Signaling Pathway, number of genes altered; assay type: cell-based; details: Jag-activated MASCs compared to MASCs; 84 genes tested
Experimental: The expression of a number of genes involved in Notch signaling, and in signaling pathways that interact with the Notch pathway (Wnt, Shh), was compared in DRCs and MASCs, using a commercial array (RT^2 Profiler PCR Array Human Notch Signaling Pathway plate, SA Biosciences No. PAHS-059F). The genes that were analyzed are shown in Table 2 (taken from SA Biosciences online Catalogue). Notch pathway members include genes encoding Notch ligands, enzymes that modify the Notch protein and various transcriptional regulatory proteins that control the expression of the Notch pathway members. Notch pathway targets are genes whose expression is either directly or indirectly regulated by Notch activation. […]
As a control, MASCs that had been exposed to clustered soluble Jagged1 protein, to activate the Notch signaling pathway (see Example 7), were also analyzed and compared to MASCs. […]
(§3) cDNA samples, synthesized as described above, were diluted and added to RT^2 SYBR Green qPCR Master Mix (SA Biosciences) according to the manufacturer's recommendations. […] SYBR green fluorescence, normalized to controls also present on the array, is used a s a measure of mRNA level.
(§4) Results were analyzed using analysis tools provided by SA Biosciences, assigning results from MASCs to the “Control” field and DRC results to the “Test” field, to obtain figures for relative changes in expression for the genes assayed. […]

[5] = test system: WISP1; assay: RT2 Profiler PCR Array Human Notch Signaling Pathway; assay type: cell-based; details: Jag-activated MASCs compared to MASCs
Experimental: (§5) The expression of a number of genes involved in Notch signaling, and in signaling pathways that interact with the Notch pathway (Wnt, Shh), was compared in DRCs and MASCs, using a commercial array (RT^2 Profiler PCR Array Human Notch Signaling Pathway plate, SA Biosciences No. PAHS-059F). The genes that were analyzed are shown in Table 2 (taken from SA Biosciences online Catalogue). Notch pathway members include genes encoding Notch ligands, enzymes that modify the Notch protein and various transcriptional regulatory proteins that control the expression of the Notch pathway members. Notch pathway targets are genes whose expression is either directly or indirectly regulated by Notch activation. Wnt pathway members are Wnt ligands or proteins that participate in WNT-mediated signaling pathways. The Wnt pathway was investigated because of known crosstalk between the Notch and Wnt signaling pathways, and because it is involved in osteogenic differentiation, which is inhibited in DRCs.
(§6) MASCs and DRCs, prepared and frozen as described in Examples 1-3, were thawed (Example 4), grown for 4-7 days in alpha-MEM/10% FBS/pen-strep, then replated into 10-cm Petri dishes at a concentration of 0.5×10^6 cells/dish, in duplicate. After re-plating, cells were grown for 4 days to allow intracellular levels of endogenous NICD, activated by trypsinization, to return to basal. At the end of this period, culture medium was carefully aspirated, the cells were lysed in 400 μl RLT Buffer (Qiagen, Valencia, Calif.), and the lysate was scraped from the plate.
(§7) As a control, MASCs that had been exposed to clustered soluble Jagged1 protein, to activate the Notch signaling pathway (see Example 7), were also analyzed and compared to MASCs.
(§8) The lysate was homogenized using a QiaShredder (Qiagen, Valencia, Calif.). The homogenate was mixed with ethanol, and the mixture was applied to a RNeasy column (Qiagen, Valencia, Calif.) and processed according to the manufacturer's instructions. The eluate was treated with a DNA-Free™ kit (Ambion, Austin, Tex.), according to the manufacturer's protocol, for elimination of genomic DNA.
(§9) RNA concentration and purity was assayed on Nanodrop spectrophotometer (Thermo Scientific, Wilmington, Del.). […]
as §3, §4

[6] = test system: CCND1; assay: as above; assay type: cell-based; details: Jag-activated MASCs compared to MASCs; two-fold criteria
Experimental: as §5, §6, §7, §8, §9, §3, §4

[7] = test system: HES1; assay: as above; assay type: cell-based; details: Jag-activated MASCs compared to MASCs
Experimental: as §5, §6, §7, §8, §9, §3, §4

[8] = test system: HR; assay: as above; assay type: cell-based; details: Jag-activated MASCs compared to MASCs
Experimental: as §5, §6, §7, §8, §9, §3, §4

[9] = test system: osteogenic differentiation; assay: Osteogenic differentiation potential assay (Alizarin Red staining); assay type: cell-based, human; details: BMP-6 500 ng/ml; MASCs, DRCs, mock DRCs
Experimental: For assay of osteogenic differentiation potential, cells (MASCs, DRCs or mock DRCs) were plated at 10^4 cells/well in 96-well plates in […]MEM (Mediatech, Herndon, Va.) supplemented with 10% Fetal Bovine Serum (FBS, HyClone, Logan Utah) and cultured overnight.
The next day, the culture medium was replaced with DMEM (Mediatech, Herndon, Va.) containing high glucose, pyruvate, glutamine and 10% FBS supplemented with 50 μg/ml Ascorbic acid (L-ascorbic acid 2-phosphate, Wako Chemical, Ltd., Japan, added freshly before use), 10 mM β-glycerophosphate (Sigma-Aldrich, St. Louis, Mo.), and 100 nM Dexamethasone (Sigma-Aldrich, St. Louis, Mo.). This “osteogenic differentiation medium” was changed every 3-4 days.
Osteogenic differentiation assays were conducted in the absence or presence of recombinant human bone morphogenetic protein 6 (BMP-6; R&D Systems, Minneapolis, Minn.), at a concentration of 500 ng/ml.
On day 14 or 17 after the transfer of cells into osteogenic differentiation medium, cultures were assayed for the presence of osteocytes by Alizarin Red staining. Cells were fixed by adding 100% methanol to the wells and incubating on ice for 3 min. The wells were then rinsed with water, and 40 mM alizarin red S (Sigma-Aldrich, St. Louis, Mo.), pH 4.2 was added. […]

[10] = test system: adipogenic differentiation; assay: Adipogenic differentiation potential assay (Oil Red O staining); assay type: cell-based, human; details: BMP-6 100 ng/ml; day 17-21
Experimental: For assay of adipogenic differentiation potential, cells were plated at 10^4 cells/well in 96-well plates in […]MEM (Mediatech, Herndon, Va.) supplemented with 10% Fetal Bovine Serum (FBS, HyClone, Logan Utah) and cultured overnight.
The next day, the culture medium was replaced with DMEM (Mediatech, Herndon, Va.) containing high glucose, pyruvate, glutamine and 10% FBS supplemented with 1 μM Dexamethasone, […] 1-methyl-3 isobutylxanthine, 100 μM indomethacin and 10 μg/ml insulin (all supplements from Sigma-Aldrich, St. Louis, Mo.). This “adipogenic differentiation medium” was changed every 3-4 days.
Adipogenic differentiation assays were conducted in the absence or presence of recombinant human bone morphogenetic protein 6 (BMP-6; R&D Systems, Minneapolis, Minn.) at a concentration of 100 ng/ml.
On day 17-21 after transfer of cells into adipogenic differentiation medium, cells were tested for adipocytic differentiation by staining with Oil Red O. Cells were fixed by adding 10% formalin to the wells and incubating for 30-60 min at room temperature. Wells were then washed with 60% isopropanol and allowed to dry completely. Oil Red O working solution was freshly prepared from Oil Red stock solution (3.5 mg/ml in isopropanol) by diluting it 3:2 in water and filtering. Staining was conducted for 10 min; and the wells were then washed extensively with water. […]

Molecule: C[C@H](NC(=O)Cc1cc(F)cc(F)c1)C(=O)N[C@H](C(=O)OC(C)(C)C)c1ccccc1 [DAPT, N—[N-(3,5-Difluorophenacetyl)-L-alanyl]-S-phenylglycine t-butyl ester]
- effect on Jagged stimulation of osteogenesis ([1]; absence of BMP6): completely reversed
- effect on Jagged stimulation of osteogenesis ([1]; presence of BMP6 500 ng/ml): strongly reduced
- effect on osteogenic potential exhibited by DRCs [2]: reduced
- effect on stimulation of adipogenesis by BMP6 ([3]; DAPT with BMP6): enhanced further
- effect on adipogenesis of MASCs ([3]; DAPT, no BMP6): slightly enhanced adipogenesis

Molecule: Jag1/Fc: fusion between the extracellular domain of the rat Jagged1 protein and the Fc region of human IgG, clustered with goat anti-human Fc
- number of genes with activated expression (two-fold or more) [4]: 18 genes
- number of genes with reduced expression (50% or less) [4]: three
- dose dependence of stimulation of osteogenesis ([1]; additional experiments): dose-dependent
- effect on osteogenesis of MASCs (Alizarin Red) ([1]; clustered Jag1/Fc 5 μg/ml, absence or presence of BMP6, 10 days): osteogenesis was strongly enhanced
- effect on BMP6-enhanced adipogenesis of MASCs ([3]; Jag with BMP6): reversed
- effect on adipogenesis of MASCs ([3]; Jag with BMP6 and DAPT): no effect
- effect on adipogenesis of MASCs ([3]; clustered Jag1/Fc, absence of DAPT or BMP6): blocked
- expression of Wisp1 [5]: up-regulated
- expression of CCND1 (cyclin D1) [6]: not altered
- expression of Hes1 [7]: up-regulated
- expression of HR [8]: up-regulated

B1: BMP-6: recombinant human bone morphogenetic protein 6 (protein, UniProt P22004 375-513, looked up)
Bone morphogenetic protein 6: SASSRRRQQSRNRSTQSQDVARVSSASDYNSSELKTACRKHELYVSFQDLGWQDWIIAPKGYAANYCDGECSFPLNAHMNATNHAIVQTLVHLMNPEYVPKPCCAPTKLNAISVLYFDDNSNVILKKYRNMVVRACGCH
- effect of BMP-6 on degree of osteogenic differentiation [9]: increased the degree of osteogenic differentiation
- effect on adipogenesis of MASCs ([3]; BMP6 in the differentiation medium): strongly enhanced adipogenesis
- effect of BMP-6 on adipocytic differentiation of MASCs [10]: enhanced
